Measured values: ChEMBL document CHEMBL1201862, “PubChem BioAssay data set” (2004)
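Method: 48-hour compound exposure of cells in 96-well plates, five concentrations, linear interpolation of endpoints. GI50 marks 50% less growth.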 Calls of active or inactive are those of the source. Cut-off read from the data, not from the text of the source: active = GI50 up to about 1.1 µM and inactive = higher.

How the values were obtained:
Experiment in all cases: inhibition of tumour cell growth, NCI panel, 48 h
OVCAR-3 = test system: OVCAR-3
SR = test system: SR
DU-145 = test system: DU-145
MDA-MB-231 = test system: MDA-MB-231
ACHN = test system: ACHN
NCI/ADR-RES = test system: NCI/ADR-RES
OVCAR-5 = test system: OVCAR-5
MOLT-4 = test system: MOLT-4
HOP-62 = test system: HOP-62
EKVX = test system: EKVX
HCT-116 = test system: HCT-116
SF-539 = test system: SF-539
Hs-578T = test system: Hs-578T
SW-620 = test system: SW-620
OVCAR-8 = test system: OVCAR-8
CCRF-CEM = test system: CCRF-CEM
K562 = test system: K562
UACC-257 = test system: UACC-257
SNB-75 = test system: SNB-75
NCI-H23 = test system: NCI-H23
HCC 2998 = test system: HCC 2998
HT-29 = test system: HT-29
UO-31 = test system: UO-31
LOX IMVI = test system: LOX IMVI
MDA-N = test system: MDA-N
HL-60 = test system: HL-60
MDA-MB-435 = test system: MDA-MB-435
NCI-H226 = test system: NCI-H226
COLO 205 = test system: COLO 205
SNB-19 = test system: SNB-19
SF-295 = test system: SF-295
786-0 = test system: 786-0
U-251 = test system: U-251
MCF7 = test system: MCF7
KM12 = test system: KM12
BT-549 = test system: BT-549
SK-MEL-28 = test system: SK-MEL-28
Malme-3M = test system: Malme-3M
HCT-15 = test system: HCT-15
TK-10 = test system: TK-10
PC-3 = test system: PC-3
SN12C = test system: SN12C
IGROV-1 = test system: IGROV-1
RPMI-8226 = test system: RPMI-8226
NCI-H522 = test system: NCI-H522
NCI-H460 = test system: NCI-H460
SK-MEL-5 = test system: SK-MEL-5
OVCAR-4 = test system: OVCAR-4
A498 = test system: A498
A549 = test system: A549
HOP-92 = test system: HOP-92
SF-268 = test system: SF-268
CAKI-1 = test system: CAKI-1
SK-MEL-2 = test system: SK-MEL-2
UACC-62 = test system: UACC-62
RXF 393 = test system: RXF 393
M14 = test system: M14
T47D = test system: T47D
SK-OV-3 = test system: SK-OV-3

Compound: CC(C)CCn1c(=O)c2c(=O)[nH][nH]c2c2ccccc21
- GI50 (OVCAR-3): > 100 µM (inactive)
- GI50 (SR): > 100 µM (inactive)
- GI50 (DU-145): > 100 µM (inactive)
- GI50 (MDA-MB-231): > 100 µM (inactive)
- GI50 (ACHN): > 100 µM (inactive)
- GI50 (NCI/ADR-RES): > 100 µM (inactive)
- GI50 (OVCAR-5): > 100 µM (inactive)
- GI50 (MOLT-4): > 10 µM (inactive)
- GI50 (HOP-62): > 100 µM (inactive)
- GI50 (EKVX): > 100 µM (inactive)
- GI50 (HCT-116): > 100 µM (inactive)
- GI50 (SF-539): > 100 µM (inactive)
- GI50 (Hs-578T): > 100 µM (inactive)
- GI50 (SW-620): > 100 µM (inactive)
- GI50 (OVCAR-8): > 100 µM (inactive)
- GI50 (CCRF-CEM): > 100 µM (inactive)
- GI50 (K562): > 100 µM (inactive)
- GI50 (UACC-257): > 100 µM (inactive)
- GI50 (SNB-75): > 10 µM (inactive)
- GI50 (NCI-H23): > 100 µM (inactive)
- GI50 (HCC 2998): > 100 µM (inactive)
- GI50 (HT-29): > 100 µM (inactive)
- GI50 (UO-31): > 100 µM (inactive)
- GI50 (LOX IMVI): > 100 µM (inactive)
- GI50 (MDA-N): > 100 µM (inactive)
- GI50 (HL-60): > 100 µM (inactive)
- GI50 (MDA-MB-435): > 100 µM (inactive)
- GI50 (NCI-H226): > 100 µM (inactive)
- GI50 (COLO 205): > 100 µM (inactive)
- GI50 (SNB-19): > 100 µM (inactive)
- GI50 (SF-295): > 100 µM (inactive)
- GI50 (786-0): > 100 µM (inactive)
- GI50 (U-251): > 100 µM (inactive)
- GI50 (MCF7): > 100 µM (inactive)
- GI50 (KM12): > 100 µM (inactive)
- GI50 (BT-549): > 100 µM (inactive)
- GI50 (SK-MEL-28): > 100 µM (inactive)
- GI50 (Malme-3M): > 100 µM (inactive)
- GI50 (HCT-15): > 100 µM
- GI50 (TK-10): > 100 µM (inactive)
- GI50 (PC-3): > 100 µM (inactive)
- GI50 (SN12C): > 100 µM (inactive)
- GI50 (IGROV-1): > 100 µM (inactive)
- GI50 (RPMI-8226): > 100 µM (inactive)
- GI50 (NCI-H522): > 100 µM (inactive)
- GI50 (NCI-H460): > 100 µM (inactive)
- GI50 (SK-MEL-5): > 100 µM (inactive)
- GI50 (OVCAR-4): > 100 µM (inactive)
- GI50 (A498): > 100 µM (inactive)
- GI50 (A549): > 100 µM (inactive)
- GI50 (HOP-92): > 100 µM (inactive)

Compound: CC(=O)Nc1ccc2oc(=O)c3ccccc3c2c1
- GI50 (OVCAR-3): > 100 µM (inactive)
- GI50 (SF-268): > 100 µM (inactive)
- GI50 (SR): > 100 µM (inactive)
- GI50 (DU-145): > 100 µM (inactive)
- GI50 (ACHN): > 100 µM (inactive)
- GI50 (NCI/ADR-RES): > 100 µM (inactive)
- GI50 (OVCAR-5): > 100 µM (inactive)
- GI50 (MOLT-4): > 100 µM (inactive)
- GI50 (HOP-62): > 100 µM (inactive)
- GI50 (EKVX): > 100 µM (inactive)
- GI50 (HCT-116): > 100 µM (inactive)
- GI50 (SF-539): > 100 µM (inactive)
- GI50 (Hs-578T): > 100 µM (inactive)
- GI50 (SW-620): > 100 µM (inactive)
- GI50 (CAKI-1): > 100 µM (inactive)
- GI50 (OVCAR-8): > 100 µM (inactive)
- GI50 (SK-MEL-2): > 100 µM (inactive)
- GI50 (CCRF-CEM): > 100 µM (inactive)
- GI50 (K562): > 100 µM (inactive)
- GI50 (UACC-257): > 100 µM (inactive)
- GI50 (SNB-75): > 100 µM (inactive)
- GI50 (NCI-H23): > 100 µM (inactive)
- GI50 (HCC 2998): > 100 µM (inactive)
- GI50 (HT-29): > 100 µM (inactive)
- GI50 (UO-31): > 100 µM (inactive)
- GI50 (LOX IMVI): > 100 µM (inactive)
- GI50 (MDA-N): > 100 µM (inactive)
- GI50 (HL-60): > 100 µM (inactive)
- GI50 (MDA-MB-435): > 100 µM (inactive)
- GI50 (UACC-62): 50.9 µM (inactive)
- GI50 (NCI-H226): > 100 µM (inactive)
- GI50 (COLO 205): > 100 µM (inactive)
- GI50 (RXF 393): > 100 µM (inactive)
- GI50 (SNB-19): > 100 µM (inactive)
- GI50 (SF-295): > 100 µM (inactive)
- GI50 (786-0): > 100 µM (inactive)
- GI50 (U-251): > 100 µM (inactive)
- GI50 (M14): > 100 µM (inactive)
- GI50 (MCF7): > 100 µM (inactive)
- GI50 (KM12): > 100 µM (inactive)
- GI50 (BT-549): > 100 µM (inactive)
- GI50 (SK-MEL-28): > 100 µM (inactive)
- GI50 (Malme-3M): > 100 µM (inactive)
- GI50 (HCT-15): > 100 µM
- GI50 (T47D): > 100 µM (inactive)
- GI50 (PC-3): > 100 µM (inactive)
- GI50 (SN12C): > 100 µM (inactive)
- GI50 (IGROV-1): > 100 µM (inactive)
- GI50 (RPMI-8226): > 100 µM (inactive)
- GI50 (NCI-H522): > 100 µM (inactive)
- GI50 (NCI-H460): > 100 µM (inactive)
- GI50 (SK-MEL-5): > 100 µM (inactive)
- GI50 (OVCAR-4): > 100 µM (inactive)
- GI50 (A498): > 100 µM (inactive)
- GI50 (A549): > 100 µM (inactive)
- GI50 (HOP-92): > 100 µM (inactive)

Compound: Cc1ccc(S(=O)(=O)NC(CCC(=O)NN)C(=O)NN)cc1 (configuration not stated)
- GI50 (OVCAR-3): > 100 µM (inactive)
- GI50 (SF-268): > 100 µM (inactive)
- GI50 (SR): > 100 µM (inactive)
- GI50 (MDA-MB-231): > 100 µM (inactive)
- GI50 (ACHN): > 100 µM (inactive)
- GI50 (NCI/ADR-RES): > 100 µM (inactive)
- GI50 (OVCAR-5): > 100 µM (inactive)
- GI50 (MOLT-4): > 100 µM (inactive)
- GI50 (HOP-62): > 100 µM (inactive)
- GI50 (EKVX): > 100 µM (inactive)
- GI50 (HCT-116): > 100 µM (inactive)
- GI50 (SF-539): > 100 µM (inactive)
- GI50 (Hs-578T): > 100 µM (inactive)
- GI50 (SW-620): > 100 µM (inactive)
- GI50 (CAKI-1): > 100 µM (inactive)
- GI50 (OVCAR-8): > 100 µM (inactive)
- GI50 (SK-MEL-2): > 100 µM (inactive)
- GI50 (CCRF-CEM): > 100 µM (inactive)
- GI50 (K562): > 100 µM (inactive)
- GI50 (UACC-257): > 100 µM (inactive)
- GI50 (SNB-75): > 100 µM (inactive)
- GI50 (NCI-H23): > 100 µM (inactive)
- GI50 (HT-29): > 100 µM (inactive)
- GI50 (UO-31): > 100 µM (inactive)
- GI50 (LOX IMVI): > 100 µM (inactive)
- GI50 (MDA-N): > 100 µM (inactive)
- GI50 (HL-60): > 100 µM (inactive)
- GI50 (MDA-MB-435): > 100 µM (inactive)
- GI50 (UACC-62): > 100 µM (inactive)
- GI50 (NCI-H226): > 100 µM (inactive)
- GI50 (COLO 205): > 100 µM (inactive)
- GI50 (RXF 393): > 100 µM (inactive)
- GI50 (SNB-19): > 100 µM (inactive)
- GI50 (SF-295): > 100 µM (inactive)
- GI50 (786-0): > 100 µM (inactive)
- GI50 (U-251): > 100 µM (inactive)
- GI50 (M14): > 100 µM (inactive)
- GI50 (MCF7): > 100 µM (inactive)
- GI50 (KM12): > 100 µM (inactive)
- GI50 (BT-549): > 100 µM (inactive)
- GI50 (Malme-3M): > 100 µM (inactive)
- GI50 (HCT-15): 0.304 µM
- GI50 (TK-10): > 100 µM (inactive)
- GI50 (T47D): > 100 µM (inactive)
- GI50 (PC-3): > 100 µM (inactive)
- GI50 (IGROV-1): > 100 µM (inactive)
- GI50 (RPMI-8226): > 100 µM (inactive)
- GI50 (NCI-H522): > 100 µM (inactive)
- GI50 (NCI-H460): 0.067 µM (active)
- GI50 (SK-MEL-5): > 100 µM (inactive)
- GI50 (OVCAR-4): 16.5 µM (inactive)
- GI50 (A498): > 100 µM (inactive)
- GI50 (SK-OV-3): > 100 µM (inactive)
- GI50 (A549): > 100 µM (inactive)
- GI50 (HOP-92): > 100 µM (inactive)
